Experimental data as given in US20250051322A1, “CRYSTAL OF S[…], SALTS OF S[…], AND CRYSTALS THEREOF” (Eisai R&D Management Co., Ltd., priority 2022, published 2025).

Experiments:
[1] = molecular target: T1, hOX1R (Homo sapiens, UniProt O43613); test: Test Example 1-1: activating activity for OX1R (intracellular calcium, HEK293 with forced expression); type: cell-based; details: calcium fluorescence, 3×10^-10 M to 1×10^-7 M, 10 nM OX-A as 100%
T1 construct: expressed in transfected cells; host or cells: HEK293
T1 sequence (O43613 1-425): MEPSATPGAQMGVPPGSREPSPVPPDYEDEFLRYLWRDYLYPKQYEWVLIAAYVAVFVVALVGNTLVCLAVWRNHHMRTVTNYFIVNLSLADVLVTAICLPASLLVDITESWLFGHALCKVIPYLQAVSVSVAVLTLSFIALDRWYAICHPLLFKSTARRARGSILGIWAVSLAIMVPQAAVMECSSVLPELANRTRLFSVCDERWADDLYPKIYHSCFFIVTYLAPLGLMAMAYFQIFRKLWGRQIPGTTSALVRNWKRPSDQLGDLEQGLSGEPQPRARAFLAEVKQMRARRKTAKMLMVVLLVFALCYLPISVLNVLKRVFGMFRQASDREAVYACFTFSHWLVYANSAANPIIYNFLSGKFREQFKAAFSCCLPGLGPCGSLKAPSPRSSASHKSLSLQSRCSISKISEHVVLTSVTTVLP
Description: Human Embryonic Kidney cells 293 (HEK293) cells with forced expression of hOX1R and hOX2R were seeded in a 384-well microplate (Greiner) at 10,000 per well and cultured for 24 hours in high-glucose-DMEM (FujiFilm Corp.-Wako Pure Chemical Industries, Ltd.) containing added 10% FBS (Thermo Scientific) and 1% Penicillin-Streptomycin (FujiFilm Corp.-Wako Pure Chemical Industries, Ltd.). After removing the medium, there was added 40 μL of assay buffer (20 mM HEPES (Sigma-Aldrich Japan, KK.), Hank's Balanced Salt Solution (Gibco), 0.1% BSA (Sigma-Aldrich Japan, KK.), 0.1% Pluronic F-127 (Biotium, Inc.)) containing Calcium 4 dye (Molecular Device Corporation) and 2.5 mM probenecid (Sigma-Aldrich Japan, KK.), and the mixture was incubated for 60 minutes. After further adding 20 μL of assay buffer, 20 μL of assay buffer containing the test compound was added and reaction was initiated. Change in intracellular calcium ion concentration by the reaction was measured based on the fluorescence intensity ratio in terms of the fluorescence value with dual wavelength excitation at 480 nm and 540 nm, using FDSS7000 (Hamamatsu Photonics, K.K.). The test compound was dissolved in DMSO to 10 mM, and diluted with assay buffer to a final concentration of from 3×10^−10 M to 1×10^−7 M (DMSO final concentration of 0.1%). […]

[2] = tested on: orexin/ataxin 3 mice (Tg mice); test: Test Example 4: alertness effect and cataplexy-like behavior inhibiting effect by dark period oral administration to orexin/ataxin 3 mice; type: in vivo, mouse; details: for DREM latency: solvent 1.16 hours, assessed up to maximum 4 hours; for sleep latency: before lights off, solvent 0.21 hour
Source text: The experimental animals used were orexin/ataxin 3 mice (orexin/ataxin-3 Tg/+ (hereunder referred to as “Tg mice”), Hara et al., Neuron, 30, 345-54, 2001) with a C57BL/6 genetic background, with wild type mice (hereunder referred to as “WT mice”) of the same litter as the control. Electroencephalogram and electromyogram measuring electrodes were surgically embedded into 12-week-old mice (+2 weeks) under isoflurane anesthesia. After surgery, and following conditioning to the illumination cycle and experimentation procedure, electroencephalogram and electromyogram measurement were carried out and mice with proper electroencephalogram and electromyogram recording were supplied for the experiment. The solvent (0 mg/kg) or a specimen (solution of compound (I) dissolved in the solvent (0.3, 1 or 3 mg/kg)) was orally administered 30 to 15 minutes before lighting was turned off. The solvent used was a 0.1 mol/L hydrochloric acid solution containing 5% (v/v) DMSO and 5% (v/v) Kolliphor^R EL. The electroencephalogram and electromyogram were recorded for about 24 hours, from 1 hour before lighting was turned off. The mice were repeatedly used, with a washout period of 2 days or longer. The electroencephalogram and electromyogram data obtained for each mouse were used to assess the sleep stage every epoch (10 seconds), using sleep analysis software (SleepSign: Kissei Comtec Co., Ltd.), up to a maximum of 4 hours. For the purpose of this experiment, cataplexy-like symptoms were defined as REM sleep appearing immediately after wakefulness (direct transitions from wake to REM sleep (DREM)) for a contiguous period of 4 epochs or longer. DREM in mice is an analog of cataplexy (Exp Neurol. 2009:217:46-54). The time until initial sleep appeared after lighting out for each mouse (sleep for contiguous 8 epochs or longer, excluding DREM) (sleep latency) and the time until initial DREM appeared (DREM latency) were measured. The numbers of mice were 8 in the solvent-administered group and 14 in the compound (I)-administered group. The sleep latency in a disease control group and a compound (I)-administered group were compared by a Dunnet-type multiple comparison test following survival time analysis in consideration of the number of experiments and use of the same individuals, with a significance level of 5% at both ends for each. The DREM latency in the normal control group and disease control group were compared by survival time analysis in consideration of the number of experiments and use of the same individuals. Cases with significance in the statistical test for the disease control group and the compound (I)-administered group were compared by a Dunnet-type multiple comparison test following survival time analysis in consideration of the number of experiments and use of the same individuals, with a significance level of 5% at both ends for each.

[3] = tested on: C57BL/6 line wild type (WT) male mice; test: Test Example 3: alertness effect (sleep latency, EEG/EMG) by dark period oral administration to wild type mice; type: in vivo, mouse; details: before lights off, solvent 0.23 hour
Description: The experimental animals used were C57BL/6 line wild type (WT) male mice. Electroencephalogram and electromyogram measuring electrodes were surgically embedded into 13-week-old mice under isoflurane anesthesia. After surgery, and following conditioning to the illumination cycle and experimentation procedure, electroencephalogram and electromyogram measurement were carried out and mice with proper electroencephalogram and electromyogram recordings were supplied for the experiment. The solvent (0 mg/kg) or a solution of compound (I) dissolved in the solvent (1, 3 or 10 mg/kg) was orally administered 30 to 15 minutes before lighting was turned off. The solvent used was a 0.1 mol/L hydrochloric acid solution containing 5% (v/v) DMSO and 5% (v/v) Kolliphor^R EL. The electroencephalogram and electromyogram were recorded for about 24 hours, from 1 hour before lighting was turned off. The mice were repeatedly used, with a washout period of 2 days or longer. The electroencephalogram and electromyogram data obtained for each mouse were used to assess the sleep stage every epoch (10 seconds), using sleep analysis software (SleepSign: Kissei Comtec Co., Ltd.). […] Using 16 mice in each administered group, the sleep latency in a solvent-administered group (control group) and a compound (I)-administered group were compared by a Dunnet-type multiple comparison test following survival time analysis in consideration of the number of experiments and use of the same individuals, with a significance level of 5% at both ends for each.

[4] = tested on: Male C57BL/6NCrl mice; test: Test Example 2: increase in spontaneous movement; type: in vivo, mouse; details: 10 mg/kg orally, measured 2 hours after administration, control group = 100%
Description: Increased movement in mice is an indicator of increased alertness time, higher body temperature and augmented cardiovascular parameters, as well as heightened alertness. In this test example, the alertness effect was evaluated by measuring spontaneous movement of the mice. Male C57BL/6NCrl mice (18-19 weeks old, Charles River Laboratories, Japan Inc., 4 mice in each group) were used for the experiment. Spontaneous movement was measured by using a movement measuring device (VersaMax Open Field, AccuScan Instruments, Inc.), irradiating infrared rays from the side sections of the measuring cage, and quantifying the number of times that the mice passed through the irradiated rays. After placing the mice in the measuring cage and conditioning for 3 hours, compound (I) was orally administered (10 mg/kg). Spontaneous movement was measured 2 hours after administration. The mice in the compound (I)-administered group were administered a solution of compound (I) dissolved in 0.1 mol/L hydrochloric acid containing 5% (v/v) DMSO and 5% (v/v) Kolliphor^R EL. For the control group, solvent alone without compound (I) was administered to the mice.
Spontaneous movement was represented as a percentage for the compound (I)-administered group, with spontaneous movement in the control group as 100%.

Structure (SMILES) | EC50 [1] [µM] | DREM latency ([2]; 0.3 mg/kg oral, significant) [h] | DREM latency ([2]; 1 mg/kg oral, significant) [h] | DREM latency ([2]; 3 mg/kg oral, significant) [h] | sleep latency ([3]; 1 mg/kg oral) [h] | sleep latency ([3]; 3 mg/kg oral, significant) [h] | sleep latency ([3]; 10 mg/kg oral, significant) [h] | Spontaneous movement (% of Control) [4] | sleep latency ([2]; 0.3 mg/kg oral) [h] | sleep latency ([2]; 1 mg/kg oral, significant) [h] | sleep latency ([2]; 3 mg/kg oral, significant) [h]
CO[C@@H]1CN(c2ncc(F)cn2)CC[C@@H]1[C@@H]1C[C@H]2CC[C@@H](C1)N2[C@@H](C(N)=O)C1CC1 [Compound (I), (2R)-2-cyclopropyl-2-{(1R,3S,5S)-3-[(3S,4R)-1-(5-fluoropyrimidin-2-yl)-3-methoxypiperidin-4-yl]-8-azabicyclo[3.2.1]octan-8-yl}acetamide] | > 0.1 | 1.50 | 2.26 | 4.00 | 0.28 | 0.44 | 2.07 | 865 % of Control |  |  | 
CO[C@@H]1CN(c2ncc(F)cn2)CC[C@@H]1[C@@H]1C[C@H]2CC[C@@H](C1)N2[C@@H](C(N)=O)C1CC1 [Example 1, (2R)-2-cyclopropyl-2-{(1R,3S,5S)-3-[(3S,4R)-1-(5-fluoropyrimidin-2-yl)-3-methoxypiperidin-4-yl]-8-azabicyclo[3.2.1]octan-8-yl}acetamide] |  |  |  |  |  |  |  |  | 0.31 | 0.64 | 2.42
